The record followed here is patent US20060216235A1, “Cancerous disease modifying antibodies” (priority 2003, published 2006).

SMILES strings stand for the structures.

One series relates to MDA-MB-231. Description: Live/Dead cytotoxicity assay, hybridoma supernatants. To be noted: hybridoma supernatant, 5 days.
The test system of another series is MDA-MB-468. The description is as above. To be noted: hybridoma supernatant, 5 days.
In the next series the test system is SKBR-3. The series is described as above. To be noted: hybridoma supernatant, 5 days.
A further series relates to CCD 27sk. To be noted: purified antibody, 5 days; four experiments in triplicate; non-cancer cells.
In a further series the test system is OVCAR. Set-up: key to the marks not given beside the values. To be noted: purified antibody, 5 days; four experiments in triplicate.
The test system of the next series is PC-3. Set-up: key to the marks not given beside the values. To be noted: purified antibody, 5 days; four experiments in triplicate.
The next series has as its system NCI H460. Set-up: key to the marks not given beside the values. To be noted: purified antibody, 5 days; four experiments in triplicate.
For another series, the system named is MB-231. Set-up: key to the marks not given beside the values. To be noted: purified antibody, 5 days; four experiments in triplicate.
In the next series the test system is SW620. To be noted: purified antibody, 5 days; four experiments in triplicate.
In the next series the test system is SW1116. The settings on record: purified antibody, 5 days; four experiments in triplicate.
A further series has as its system MB-468. Set-up: key to the marks not given beside the values. The settings on record: purified antibody, 5 days; four experiments in triplicate.
A further series deals with MCF-7. Set-up: key to the marks not given beside the values. The settings on record: purified antibody, 5 days; four experiments in triplicate.
Another series relates to HT-29. Set-up: key to the marks not given beside the values. The settings on record: purified antibody, 5 days; four experiments in triplicate.
Another series relates to Hs888 Lu. The settings on record: purified antibody, 5 days; four experiments in triplicate; non-cancer cells.

With `C[C@@H]1C[C@@H]([C@H](O)CC2CC(=O)NC(=O)C2)C(=O)[C@@H](C)C1` [Cycloheximide], the “Cytotoxicity (%) MB-231 Average” value with MDA-MB-231 amounted to 49%. Besides, the “Cytotoxicity (%) MB-468 Average” value in the series with MDA-MB-468 stood at 24%. Further, the “Cytotoxicity (%) SKBR-3 Average” value in the series with SKBR-3 amounted to 56%.

Consider `[N-]=[N+]=[N-].[Na+]` [NaN3], for which, in the series with CCD 27sk, the “cytotoxicity, NORMAL CCD27sk” value was “−”. Besides, in the series on OVCAR, the “cytotoxicity, OVARY OVCAR” value is reported as “+++”. Moreover, the “cytotoxicity, PROSTATE PC-3” value in the series on PC-3 is recorded as “+++”. For the same compound, in the series on NCI H460, the “cytotoxicity, LUNG NCI H460” value is listed as “+++”. In the series with MB-231, the “cytotoxicity, BREAST MB-231” value is given as “+++”. Also, the “cytotoxicity, COLON SW620” value with SW620 is listed as “−”. Moreover, the “cytotoxicity, COLON SW1116” value in the series on SW1116 was “−”. Further, the “cytotoxicity, BREAST MB-468” value with MB-468 is listed as “+++”. Besides, the “cytotoxicity, BREAST MCF-7” value in the series with MCF-7 was “+++”. Further, the “cytotoxicity, COLON HT-29” value with HT-29 was “+++”. Besides, the “cytotoxicity, NORMAL Hs888 Lu” value with Hs888 Lu was “−”.
